Assay results published in patent US8404725B2, “Phenylamino isonicotinamide compounds” (Merck Patent GmbH, priority 2008, dated 2013).

Tests used:
[1] = molecular target: human MEK1 (Homo sapiens, UniProt Q02750); assay: MEK-1 Enzyme Assay (LANCE-HTRF); format: biochemical; details: 100 nM MEK1, 15 μM ATP, 300 nM ERK2, two hours
Experimental: The activity of the compounds of the present invention may be determined by the following procedure: Inhibition of human MEK1 kinase activity was monitored with a homogenous, fluorescence based assay. The assay uses time resolved fluorescence resonance energy transfer to probe for phosphorylation of […] by MEK1. The assay is carried out in low volume 96 well microtiterplates. In a total volume of 15 μl, compounds are incubated with 100 nM MEK1, 15 μM ATP, 300 nM ERK2 employing a buffer containing 20 mM TRIS/HCl, 10 mM MgCl2, 100 μM NaVO4, 1 mM DTT, and 0.005% Tween 20 (pH 7.4). After two hours, 5 nM Europium-anti-PY20 (Perkin Elmer) and 50 nM Anti-GST-Allophycocyanin (CisBio) in buffer containing 50 mM EDTA and 0.05% BSA are added and the reaction incubated for one hour in the dark. Time-resolved fluorescence is measured using a LJL-Analyst (Molecular Devices) with an excitation wavelength of 340 nm and an emission wavelength of 665 nm. The final concentration of DMSO is 2%.

[2] = test system: Murine colon C26 cells; assay: Tumor Cell Proliferation Assay (ATP Lite), C26; format: cell-based; details: Mus musculus, 96 h, 4 days
Experimental: (§1) Murine colon C26, human melanoma A375 and human pancreatic MiaPaCa-2 cells were plated in 96 well Corning white plates (1500 cells/well for C26, and 2000 cells/well for A375, and MiaPaCa-2) and cultured overnight at 37° C. in 5% CO2. Inhibitors were serially diluted in 100 DMSO and subsequently added to cells to reach a final concentration of 0.25% DMSO. The cells were incubated for 4 days in the presence of test compounds in cell growth media (DMEM with 10% fetal bovine serum, 2 mM glutamine for C26, and MiaPaCa-2, and RPMI with 10% fetal bovine serum, 2 mM glutamine for A375). Cell proliferation was quantitated using the ATP lite cell proliferation kit (Packard). Columns 2-5 show the concentration of compounds required to induce 50% cell death (IC50 in μM) of […].

[3] = test system: human pancreatic MiaPaCa-2 cells; assay: Tumor Cell Proliferation Assay (ATP Lite), MiaPaCa-2; format: cell-based; details: MIA PaCa-2, 96 h, 4 days
Experimental: as §1

[4] = test system: human melanoma A375 cells; assay: Tumor Cell Proliferation Assay (ATP Lite), A375; format: cell-based; details: A-375, 96 h, 4 days
Experimental: as §1

[5] = test system: Colo-205 xenograft; assay: In vivo efficacy, Colo-205 mouse xenograft model; details: male nude mice
Experimental: (§2) Male nude (nu/nu) mice were injected subcutaneously above the right foreleg with certain number of cells of human tumor cell lines such as Colo-205, A375 or MiaPaCa2. Tumors were measured with calipers one week after cells were implanted. Tumor length (l) and width (w) were measured and tumor volume was calculated with the equation l*w^2/2. […] Tumor volume and body weight were measured for each animal on Days 0, 4, 6, 8, 10, 12 and 14. Tumor volume and percent body weight were analyzed via Two-Way Repeated Measures Analysis of Variance (RM-ANOVA) followed by Fisher's post-hoc multiple pair-wise comparisons of treatment group means.

[6] = test system: MiaPaCa2 xenograft; assay: In vivo efficacy, MiaPaCa2 mouse xenograft model; details: male nude mice
Experimental: as §2

Sequence of human MEK1 (Q02750 whole entry): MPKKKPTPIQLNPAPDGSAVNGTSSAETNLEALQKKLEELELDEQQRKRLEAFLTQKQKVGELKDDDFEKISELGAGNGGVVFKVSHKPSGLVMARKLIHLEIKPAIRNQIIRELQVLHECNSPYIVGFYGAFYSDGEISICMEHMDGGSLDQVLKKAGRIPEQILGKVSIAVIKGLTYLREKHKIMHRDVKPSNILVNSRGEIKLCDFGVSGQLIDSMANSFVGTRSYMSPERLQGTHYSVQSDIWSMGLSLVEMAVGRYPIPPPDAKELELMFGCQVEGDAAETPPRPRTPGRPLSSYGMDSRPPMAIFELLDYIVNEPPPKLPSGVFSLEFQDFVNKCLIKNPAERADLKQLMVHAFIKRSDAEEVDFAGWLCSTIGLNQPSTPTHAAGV

Row | SMILES | IC50 [1] | IC50 [2] | IC50 [3] | IC50 [4] | tumor growth inhibition ([5]; daily 1.5 mg/kg, oral route) | tumor growth inhibition (TGI) ([5]; 50 μg/kg*day, oral route) | tumor growth inhibition ([5]; 150 μg/kg/day) | TGI ([6]; 33 μg/kg/day) | TGI ([6]; 50 μg/kg/day)
1 | O=C(N[C@@H]1CCC[C@@H](O)[C@H]1O)c1cc(Cl)ncc1Nc1ccc(I)cc1F (racemic) [(1), 2-Chloro-N-((1RS,2SR,3RS)-2,3-dihydroxy-cyclohexyl)-5-(2-fluoro-4-iodo-phenylamino)-sonicotinamide] | 0.0345 µM | 0.002 µM | 0.002 µM | 0.002 µM | – | – | – | – | –
2 | O=C(N[C@@H]1CCC[C@@H](O)[C@H]1O)c1c(F)cncc1Nc1ccc(I)cc1F (racemic) [(2)] | 0.074 µM | 0.005 µM | 0.0045 µM | 0.001 µM | – | – | – | – | –
3 | O=C(N[C@H]1CCC[C@H](O)[C@@H]1O)c1ccncc1Nc1ccc(I)cc1F (racemic) [(3), N-[(1SR,2RS,3SR)-2,3-dihydroxycyclohexyl]-3-[(2-fluoro-4-iodophenyl)amino]isonicotinamide] | 0.0948 µM | 0.016 µM | 0.0073 µM | 0.0014 µM | – | – | – | – | –
4 | N[C@@H]1CCC[C@@H](OC(=O)c2c(F)cncc2Nc2ccc(I)cc2F)[C@H]1O (racemic) [(4), 3-Fluoro-5-(2-fluoro-4-iodo-phenylamino)-isonicotinic acid (1RS,2SR,3RS)-3-amino-2-hydroxy-cyclohexyl ester] | 0.16 µM | 0.02 µM | 0.049 µM | 0.0855 µM | – | – | – | – | –
5 | O=C(N[C@@H]1CCC[C@@H](O)[C@H]1O)c1ccncc1Nc1ccc(Br)cc1F (racemic) [(5), 3-(4-Bromo-2-fluoro-phenylamino)-N-((1RS,2SR,3RS)-2,3-dihydroxy-cyclohexyl)-isonicotinamide] | 0.098 µM | 0.073 µM | 0.0425 µM | 0.0075 µM | – | – | – | – | –
6 | O=C(N[C@@H]1CCC[C@@H](O)[C@H]1O)c1ccncc1Nc1ccc(Br)cc1F [(9), 3-(4-bromo-2-fluorophenylamino)-N-((1R,2S,3R)-2,3-dihydroxycyclohexyl)isonicotinamide] | – | – | – | – | 98.5% | – | – | – | –

Further lines, with some results ahead:

Row | IC50 [1] | IC50 [2] | IC50 [3] | IC50 [4] | SMILES | tumor growth inhibition ([5]; daily 1.5 mg/kg, oral route) | tumor growth inhibition (TGI) ([5]; 50 μg/kg*day, oral route) | tumor growth inhibition ([5]; 150 μg/kg/day) | TGI ([6]; 33 μg/kg/day) | TGI ([6]; 50 μg/kg/day)
7 | 0.038 µM | 0.113 µM | 0.0753 µM | 0.0168 µM | O=C(N[C@@H]1CCC[C@@H](O)[C@H]1O)c1ccncc1Nc1ccc(Br)cc1Cl (racemic) [(6), 3-(4-Bromo-2-chloro-phenylamino)-N-((1RS,2SR,3RS)-2,3-dihydroxy-cyclohexyl)-isonicotinamide] | – | – | – | – | –
8 | 2.67 µM | 5.4 µM | 2.12 µM | 0.274 µM | O=C(N[C@H]1CCC[C@H](O)[C@@H]1O)c1ccncc1Nc1ccc(I)cc1F [(7), N-((1S,2R,3S)-2,3-dihydroxycyclohexyl)-3-(2-fluoro-4-iodophenylamino)isonicotinamide] | – | – | – | – | –
9 | 0.189 µM | 0.15 µM | 0.074 µM | 0.0215 µM | O=C(N[C@@H]1CCC[C@@H](O)[C@H]1O)c1ccncc1Nc1ccccc1F [(10), N-((1R,2S,3R)-2,3-Dihydroxy-cyclohexyl)-3-(2-fluoro-phenylamino)-isonicotinamide] | – | – | – | – | –
10 | 0.133 µM | 0.0047 µM | 0.0027 µM | 0.0016 µM | O=C(N[C@@H]1CCC[C@@H](O)[C@H]1O)c1ccncc1Nc1ccc(I)cc1F [Compound (8), N-[(1R,2S,3R)-2,3-dihydroxycyclohexyl]-3-[(2-fluoro-4-iodophenyl)amino]isonicotinamide] | – | 100.69% | 115.33% | 100.97% | 110.74%
